Measured values reported in patent US20240123079A1 (Seagen Inc., priority 2021, published 2024).

Test system: THP1-Dual™ reporter cells
Assay: THP1-Dual cell reporter assay (IRF-Lucia luciferase reporter)
Format: cell-based, human
Conditions: for EC50: Homo sapiens, THP1-Dual, free compounds, 24 h, Lucia reporter signal, read-out: EC50; for EC50 (ng/mL): ADCs: drug linker conjugated to a targeted mAb, 48 h
Summary of the method: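 THP1-Dual monocytic cells (~100,000/well) were exposed to compound for 24 h (ADCs 48 h). Secreted IRF-driven Lucia luciferase in the supernatant was quantified by QUANTI-Luc luminescence.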

SMILES | EC50 [nM] | EC50 (ng/mL)
CCn1nc(C)cc1C(=O)Nc1nc2cc(C(N)=O)cc(OC)c2n1C/C=C/Cn1c(NC(=O)c2cc(C)nn2C)nc2cc(C(N)=O)cc(OCCC3CNC3)c21 [Compound 140, (E)-7-(2-(azetidin-3-yl)ethoxy)-1-(4-(5-carbamoyl-2-(1-ethyl-3-methyl-1H-pyrazole-5-carboxamido)-7-methoxy-1H-benzo[d]imidazol-1-yl)but-2-en-1-yl)-2-(1,3-dimethyl-1H-pyrazole-5-carboxamido)-1H-benzo[d]imidazole-5-carboxamide] | 1790 | –
CCc1nc(C)oc1C(=O)Nc1nc2cc(C(N)=O)cc(OCCC3CNC3)c2n1C/C=C/Cn1c(NC(=O)c2cc(C)nn2CC)nc2cc(C(N)=O)cc(OC)c21 [Compound 141, (E)-N-(7-(2-(azetidin-3-yl)ethoxy)-5-carbamoyl-1-(4-(5-carbamoyl-2-(1-ethyl-3-methyl-1H-pyrazole-5-carboxamido)-7-methoxy-1H-benzo[d]imidazol-1-yl)but-2-en-1-yl)-1H-benzo[d]imidazol-2-yl)-4-ethyl-2-methyloxazole-5-carboxamide] | 159 | –
CCn1nc(C)cc1C(=O)Nc1nc2cc(C(N)=O)cc(OC)c2n1C/C=C/Cn1c(NC(=O)c2cc(C)nn2C)nc2cc(C(N)=O)cc(OCCCOC3CNC3)c21 [Compound 142, (E)-7-(3-(azetidin-3-yloxy)propoxy)-1-(4-(5-carbamoyl-2-(1-ethyl-3-methyl-1H-pyrazole-5-carboxamido)-7-methoxy-1H-benzo[d]imidazol-1-yl)but-2-en-1-yl)-2-(1,3-dimethyl-1H-pyrazole-5-carboxamido)-1H-benzo[d]imidazole-5-carboxamide] | 1120 | –
CCc1nc(C)oc1C(=O)Nc1nc2cc(C(N)=O)cc(OCCCOC3CNC3)c2n1C/C=C/Cn1c(NC(=O)c2cc(C)nn2CC)nc2cc(C(N)=O)cc(OC)c21 [Compound 143, (E)-N-(7-(3-(azetidin-3-yloxy)propoxy)-5-carbamoyl-1-(4-(5-carbamoyl-2-(1-ethyl-3-methyl-1H-pyrazole-5-carboxamido)-7-methoxy-1H-benzo[d]imidazol-1-yl)but-2-en-1-yl)-1H-benzo[d]imidazol-2-yl)-4-ethyl-2-methyloxazole-5-carboxamide] | 155 | –
CCn1nc(C)cc1C(=O)Nc1nc2cc(S(N)(=O)=O)ccc2n1C/C=C/Cn1c(NC(=O)c2cc(C)nn2CC)nc2cc(C(N)=O)cc(OCCC3CN(C(=O)CCN4C(=O)C=CC4=O)C3)c21 [Compound 144, (E)-7-(2-(1-(3-(2,5-dioxo-2,5-dihydro-1H-pyrrol-1-yl)propanoyl)azetidin-3-yl)ethoxy)-2-(1-ethyl-3-methyl-1H-pyrazole-5-carboxamido)-1-(4-(2-(1-ethyl-3-methyl-1H-pyrazole-5-carboxamido)-5-sulfamoyl-1H-benzo[d]imidazol-1-yl)but-2-en-1-yl)-1H-benzo[d]imidazole-5-carboxamide] | – | >10,000 ng/mL
CCn1nc(C)cc1C(=O)Nc1nc2cc(S(N)(=O)=O)ccc2n1C/C=C/Cn1c(NC(=O)c2cc(C)nn2C)nc2cc(C(N)=O)cc(OCCC3CN(C(=O)CCN4C(=O)C=CC4=O)C3)c21 [Compound 145, (E)-2-(1,3-dimethyl-1H-pyrazole-5-carboxamido)-7-(2-(1-(3-(2,5-dioxo-2,5-dihydro-1H-pyrrol-1-yl)propanoyl)azetidin-3-yl)ethoxy)-1-(4-(2-(1-ethyl-3-methyl-1H-pyrazole-5-carboxamido)-5-sulfamoyl-1H-benzo[d]imidazol-1-yl)but-2-en-1-yl)-1H-benzo[d]imidazole-5-carboxamide] | – | >10,000 ng/mL
CCn1nc(C)cc1C(=O)Nc1nc2cc(S(N)(=O)=O)ccc2n1C/C=C/Cn1c(NC(=O)c2cc(C)nn2CC)nc2cc(C(N)=O)cc(OCCCOC3CN(C(=O)CCN4C(=O)C=CC4=O)C3)c21 [Compound 146, (E)-7-(3-((1-(3-(2,5-dioxo-2,5-dihydro-1H-pyrrol-1-yl)propanoyl)azetidin-3-yl)oxy)propoxy)-2-(1-ethyl-3-methyl-1H-pyrazole-5-carboxamido)-1-(4-(2-(1-ethyl-3-methyl-1H-pyrazole-5-carboxamido)-5-sulfamoyl-1H-benzo[d]imidazol-1-yl)but-2-en-1-yl)-1H-benzo[d]imidazole-5-carboxamide] | – | >10,000 ng/mL
CCn1nc(C)cc1C(=O)Nc1nc2cc(S(N)(=O)=O)ccc2n1C/C=C/Cn1c(NC(=O)c2cc(C)nn2C)nc2cc(C(N)=O)cc(OCCCOC3CN(C(=O)CCN4C(=O)C=CC4=O)C3)c21 [Compound 147, (E)-2-(1,3-dimethyl-1H-pyrazole-5-carboxamido)-7-(3-((1-(3-(2,5-dioxo-2,5-dihydro-1H-pyrrol-1-yl)propanoyl)azetidin-3-yl)oxy)propoxy)-1-(4-(2-(1-ethyl-3-methyl-1H-pyrazole-5-carboxamido)-5-sulfamoyl-1H-benzo[d]imidazol-1-yl)but-2-en-1-yl)-1H-benzo[d]imidazole-5-carboxamide] | – | >10,000 ng/mL
CCn1nc(C)cc1C(=O)Nc1nc2cc(S(N)(=O)=O)ccc2n1C/C=C/Cn1c(NC(=O)c2cc(C)nn2C)nc2cc(C(N)=O)cc(OCCCN(C)C(=O)CCN3C(=O)C=CC3=O)c21 [Compound 148, (E)-2-(1,3-dimethyl-1H-pyrazole-5-carboxamido)-7-(3-(3-(2,5-dioxo-2,5-dihydro-1H-pyrrol-1-yl)-N-methylpropanamido)propoxy)-1-(4-(2-(1-ethyl-3-methyl-1H-pyrazole-5-carboxamido)-5-sulfamoyl-1H-benzo[d]imidazol-1-yl)but-2-en-1-yl)-1H-benzo[d]imidazole-5-carboxamide] | – | >10,000 ng/mL
CCc1nc(C)oc1C(=O)Nc1nc2cc(C(N)=O)cc(OCCC3CN(C(=O)CCN4C(=O)CC(SC[C@H](N)C(=O)O)C4=O)C3)c2n1C/C=C/Cn1c(NC(=O)c2cc(C)nn2CC)nc2cc(C(N)=O)cc(OC)c21 (stereo partly drawn) [Compound 154, S-(1-(3-(3-(2-((5-carbamoyl-1-((E)-4-(5-carbamoyl-2-(1-ethyl-3-methyl-1H-pyrazole-5-carboxamido)-7-methoxy-1H-benzo[d]imidazol-1-yl)but-2-en-1-yl)-2-(4-ethyl-2-methyloxazole-5-carboxamido)-1H-benzo[d]imidazol-7-yl)oxy)ethyl)azetidin-1-yl)-3-oxopropyl)-2,5-dioxopyrrolidin-3-yl)-L-cysteine] | > 10000 | –
CCn1nc(C)cc1C(=O)Nc1nc2cc(C(N)=O)cc(OC)c2n1C/C=C/Cn1c(NC(=O)c2cc(C)nn2C)nc2cc(C(N)=O)cc(OCCCOC3CN(C(=O)CCN4C(=O)CC(SC[C@H](N)C(=O)O)C4=O)C3)c21 (stereo partly drawn) [Compound 155, S-(1-(3-(3-(3-((5-carbamoyl-1-((E)-4-(5-carbamoyl-2-(1-ethyl-3-methyl-1H-pyrazole-5-carboxamido)-7-methoxy-1H-benzo[d]imidazol-1-yl)but-2-en-1-yl)-2-(1,3-dimethyl-1H-pyrazole-5-carboxamido)-1H-benzo[d]imidazol-7-yl)oxy)propoxy)azetidin-1-yl)-3-oxopropyl)-2,5-dioxopyrrolidin-3-yl)-L-cysteine] | 94 | –
CCc1nc(C)oc1C(=O)Nc1nc2cc(C(N)=O)cc(OCCCOC3CN(C(=O)CCN4C(=O)CC(SC[C@H](N)C(=O)O)C4=O)C3)c2n1C/C=C/Cn1c(NC(=O)c2cc(C)nn2CC)nc2cc(C(N)=O)cc(OC)c21 (stereo partly drawn) [Compound 156, S-(1-(3-(3-(3-((5-carbamoyl-1-((E)-4-(5-carbamoyl-2-(1-ethyl-3-methyl-1H-pyrazole-5-carboxamido)-7-methoxy-1H-benzo[d]imidazol-1-yl)but-2-en-1-yl)-2-(4-ethyl-2-methyloxazole-5-carboxamido)-1H-benzo[d]imidazol-7-yl)oxy)propoxy)azetidin-1-yl)-3-oxopropyl)-2,5-dioxopyrrolidin-3-yl)-L-cysteine] | 1560 | –
